Values after ≈ are worked out from the molar mass of the structure shown.
Tests used:
Type in all cases: functional
Streptococcus pneumoniae [1] = assay: Antibacterial activity against erythromycin-resistant Streptococcus pneumoniae B1 expressing erm gene by broth microdilution method
Streptococcus pneumoniae [2] = assay: Antibacterial activity against erythromycin-susceptible Streptococcus pneumoniae ATCC 49619 by broth microdilution method
Streptococcus pneumoniae [3] = assay: Antibacterial activity against erythromycin-resistant Streptococcus pneumoniae A22072 expressing mef gene by broth microdilution method
Streptococcus pneumoniae [4] = assay: Antibacterial activity against erythromycin-resistant Streptococcus pneumoniae AB11 expressing erm and mef genes by broth microdilution method

SMILES | MIC (Streptococcus pneumoniae [1]) | MIC (Streptococcus pneumoniae [2]) | MIC (Streptococcus pneumoniae [3]) | MIC (Streptococcus pneumoniae [4])
CCCCCNC(=O)O[C@@H]1[C@@H](C)N(C)C[C@H](C)C[C@@](C)(O)[C@H](O[C@@H]2O[C@H](C)C[C@H](N(C)C)[C@H]2O)[C@@H](C)[C@H](O[C@H]2C[C@@](C)(OC)[C@@H](OC(=O)NCCc3ccccc3Cl)[C@H](C)O2)[C@@H](C)C(=O)O[C@H](CC)[C@@]1(C)O | 0.5 µg/mL (≈ 0.479 µM) | < 0.03 µg/mL | 0.5 µg/mL (≈ 0.479 µM) | 16 µg/mL (≈ 15.3 µM)
CCCCCNC(=O)O[C@@H]1[C@@H](C)N(C)C[C@H](C)C[C@@](C)(O)[C@H](O[C@@H]2O[C@H](C)C[C@H](N(C)C)[C@H]2O)[C@@H](C)[C@H](O[C@H]2C[C@@](C)(OC)[C@@H](OC(=O)NCc3ccc(OC)cc3)[C@H](C)O2)[C@@H](C)C(=O)O[C@H](CC)[C@@]1(C)O | 0.5 µg/mL (≈ 0.488 µM) | 0.06 µg/mL (≈ 0.0585 µM) | 1 µg/mL (≈ 0.975 µM) | 32 µg/mL (≈ 31.2 µM)
CC[C@H]1OC(=O)[C@H](C)[C@@H](O[C@H]2C[C@@](C)(OC)[C@@H](OC(=O)NCc3ccc(F)cc3)[C@H](C)O2)[C@H](C)[C@@H](O[C@@H]2O[C@H](C)C[C@H](N(C)C)[C@H]2O)[C@](C)(O)C[C@@H](C)CN(C)[C@H](C)[C@@H](OC(=O)NCCc2ccccc2)[C@]1(C)O | 0.25 µg/mL (≈ 0.239 µM) | < 0.03 µg/mL | 0.06 µg/mL (≈ 0.0573 µM) | 32 µg/mL (≈ 30.6 µM)
CCCCNC(=O)O[C@@H]1[C@@H](C)N(C)C[C@H](C)C[C@@](C)(O)[C@H](O[C@@H]2O[C@H](C)C[C@H](N(C)C)[C@H]2O)[C@@H](C)[C@H](O[C@H]2C[C@@](C)(OC)[C@@H](OC(=O)NCc3ccc(OC)cc3)[C@H](C)O2)[C@@H](C)C(=O)O[C@H](CC)[C@@]1(C)O | 0.5 µg/mL (≈ 0.494 µM) | 0.06 µg/mL (≈ 0.0593 µM) | 1 µg/mL (≈ 0.989 µM) | 128 µg/mL (≈ 127 µM)
CC[C@H]1OC(=O)[C@H](C)[C@@H](O[C@H]2C[C@@](C)(OC)[C@@H](OC(=O)NCc3ccc(F)cc3)[C@H](C)O2)[C@H](C)[C@@H](O[C@@H]2O[C@H](C)C[C@H](N(C)C)[C@H]2O)[C@](C)(O)C[C@@H](C)CN(C)[C@H](C)[C@@H](OC(=O)NCCc2ccccc2Cl)[C@]1(C)O | 0.25 µg/mL (≈ 0.231 µM) | < 0.03 µg/mL | 0.12 µg/mL (≈ 0.111 µM) | 2 µg/mL (≈ 1.85 µM)
CC[C@H]1OC(=O)[C@H](C)[C@@H](O[C@H]2C[C@@](C)(OC)[C@@H](OC(=O)NCCc3ccc(O)cc3)[C@H](C)O2)[C@H](C)[C@@H](O[C@@H]2O[C@H](C)C[C@H](N(C)C)[C@H]2O)[C@](C)(O)C[C@@H](C)CN(C)[C@H](C)[C@H]2OC(=O)O[C@@]21C | 8 µg/mL (≈ 8.53 µM) | < 0.03 µg/mL | 1 µg/mL (≈ 1.07 µM) | 4 µg/mL (≈ 4.26 µM)
CCCCNC(=O)O[C@@H]1[C@@H](C)N(C)C[C@H](C)C[C@@](C)(O)[C@H](O[C@@H]2O[C@H](C)C[C@H](N(C)C)[C@H]2O)[C@@H](C)[C@H](O[C@H]2C[C@@](C)(OC)[C@@H](OC(=O)NCCc3ccc(O)cc3)[C@H](C)O2)[C@@H](C)C(=O)O[C@H](CC)[C@@]1(C)O | 0.25 µg/mL (≈ 0.247 µM) | < 0.03 µg/mL | 1 µg/mL (≈ 0.989 µM) | 128 µg/mL (≈ 127 µM)
CC[C@H]1OC(=O)[C@H](C)[C@@H](O[C@H]2C[C@@](C)(OC)[C@@H](OC(=O)NCCc3ccccc3Cl)[C@H](C)O2)[C@H](C)[C@@H](O[C@@H]2O[C@H](C)C[C@H](N(C)C)[C@H]2O)[C@](C)(O)C[C@@H](C)CN(C)[C@H](C)[C@H]2OC(=O)O[C@@]21C | 8 µg/mL (≈ 8.36 µM) | < 0.03 µg/mL | 0.25 µg/mL (≈ 0.261 µM) | 2 µg/mL (≈ 2.09 µM)
CC[C@H]1OC(=O)[C@H](C)[C@@H](O[C@H]2C[C@@](C)(OC)[C@@H](OC(=O)NCCc3ccc(O)cc3)[C@H](C)O2)[C@H](C)[C@@H](O[C@@H]2O[C@H](C)C[C@H](N(C)C)[C@H]2O)[C@](C)(O)C[C@@H](C)CN(C)[C@H](C)[C@@H](OC(=O)NCc2ccccc2)[C@]1(C)O | 0.25 µg/mL (≈ 0.239 µM) | < 0.03 µg/mL | 0.12 µg/mL (≈ 0.115 µM) | 128 µg/mL (≈ 122 µM)
CC[C@H]1OC(=O)[C@H](C)[C@@H](O[C@H]2C[C@@](C)(OC)[C@@H](OC(=O)NCc3ccc(OC)cc3)[C@H](C)O2)[C@H](C)[C@@H](O[C@@H]2O[C@H](C)C[C@H](N(C)C)[C@H]2O)[C@](C)(O)C[C@@H](C)CN(C)[C@H](C)[C@H]2OC(=O)O[C@@]21C | 8 µg/mL (≈ 8.53 µM) | < 0.03 µg/mL | 0.25 µg/mL (≈ 0.266 µM) | 16 µg/mL (≈ 17.1 µM)
CC[C@H]1OC(=O)[C@H](C)[C@@H](O[C@H]2C[C@@](C)(OC)[C@@H](OC(=O)NCCc3ccccc3Cl)[C@H](C)O2)[C@H](C)[C@@H](O[C@@H]2O[C@H](C)C[C@H](N(C)C)[C@H]2O)[C@](C)(O)C[C@@H](C)CN(C)[C@H](C)[C@@H](OC(=O)NCCc2ccc(O)cc2)[C@]1(C)O | 0.25 µg/mL (≈ 0.229 µM) | < 0.03 µg/mL | 0.06 µg/mL (≈ 0.0549 µM) | 16 µg/mL (≈ 14.6 µM)
CC[C@H]1OC(=O)[C@H](C)[C@@H](O[C@H]2C[C@@](C)(OC)[C@@H](OC(=O)NCCc3ccccc3Cl)[C@H](C)O2)[C@H](C)[C@@H](O[C@@H]2O[C@H](C)C[C@H](N(C)C)[C@H]2O)[C@](C)(O)C[C@@H](C)CN(C)[C@H](C)[C@@H](OC(=O)NCc2ccc(F)cc2)[C@]1(C)O | 0.25 µg/mL (≈ 0.231 µM) | 0.06 µg/mL (≈ 0.0555 µM) | 0.25 µg/mL (≈ 0.231 µM) | 4 µg/mL (≈ 3.7 µM)
CC[C@H]1OC(=O)[C@H](C)[C@@H](O[C@H]2C[C@@](C)(OC)[C@@H](OC(=O)NCc3ccc(F)cc3)[C@H](C)O2)[C@H](C)[C@@H](O[C@@H]2O[C@H](C)C[C@H](N(C)C)[C@H]2O)[C@](C)(O)C[C@@H](C)CN(C)[C@H](C)[C@H]2OC(=O)O[C@@]21C | 8 µg/mL (≈ 8.64 µM) | < 0.03 µg/mL | 0.06 µg/mL (≈ 0.0648 µM) | 4 µg/mL (≈ 4.32 µM)
CC[C@H]1OC(=O)[C@H](C)[C@@H](O[C@H]2C[C@@](C)(OC)[C@@H](OC(=O)NCCc3ccc(O)cc3)[C@H](C)O2)[C@H](C)[C@@H](O[C@@H]2O[C@H](C)C[C@H](N(C)C)[C@H]2O)[C@](C)(O)C[C@@H](C)CN(C)[C@H](C)[C@@H](OC(=O)NCCc2ccccc2Cl)[C@]1(C)O | 0.25 µg/mL (≈ 0.229 µM) | < 0.03 µg/mL | 0.25 µg/mL (≈ 0.229 µM) | 16 µg/mL (≈ 14.6 µM)
CC[C@H]1OC(=O)[C@H](C)[C@@H](O[C@H]2C[C@@](C)(OC)[C@@H](OC(=O)NCCc3ccccc3Cl)[C@H](C)O2)[C@H](C)[C@@H](O[C@@H]2O[C@H](C)C[C@H](N(C)C)[C@H]2O)[C@](C)(O)C[C@@H](C)CN(C)[C@H](C)[C@@H](OC(=O)NCc2ccccc2)[C@]1(C)O | 0.25 µg/mL (≈ 0.235 µM) | < 0.03 µg/mL | 0.25 µg/mL (≈ 0.235 µM) | 4 µg/mL (≈ 3.76 µM)
CC[C@H]1OC(=O)[C@H](C)[C@@H](O[C@H]2C[C@@](C)(OC)[C@@H](O)[C@H](C)O2)[C@H](C)[C@@H](O[C@@H]2O[C@H](C)C[C@H](N(C)C)[C@H]2O)[C@](C)(O)C[C@@H](C)CN(C)[C@H](C)[C@@H](O)[C@]1(C)O [AZITHROMYCIN] | 128 µg/mL (≈ 171 µM) | < 0.03 µg/mL | 4 µg/mL (≈ 5.34 µM) | 256 µg/mL (≈ 342 µM)
CC[C@H]1OC(=O)[C@H](C)[C@@H](O[C@H]2C[C@@](C)(OC)[C@@H](O)[C@H](C)O2)[C@H](C)[C@@H](O[C@@H]2O[C@H](C)C[C@H](N(C)C)[C@H]2O)[C@](C)(OC)C[C@@H](C)C(=O)[C@H](C)[C@@H](O)[C@]1(C)O [CLARITHROMYCIN] | 64 µg/mL (≈ 85.6 µM) | < 0.03 µg/mL | 4 µg/mL (≈ 5.35 µM) | 128 µg/mL (≈ 171 µM)

Reference: ChEMBL document CHEMBL1153924, “Synthesis and antibacterial activity of 4'',11-di-O-arylalkylcarbamoyl azithromycin derivatives” (2009)
